Data set [1] deals with HeLa cells. Briefly: Cellular uptake assay, metal content by ICP-MS. Type of data set: cell-based. Particulars: 10 µM, 24 h, whole cell accumulation by ICP-MS. On the procedure:
Subsequently, we investigated the uptake of the conjugates 5 and 7 (at 10 µM) by incubating HeLa cells with the respective compounds for 24 hours and analyzing the final metal concentration inside the cells using inductively coupled plasma mass spectrometry (ICP‐MS). […]
HeLa cells were harvested and seeded in 100 mm × 21 mm cell culture dishes at a density of 200,000 cells per dish in 10 mL of growth medium. After 96 hours of incubation, when the cells had reached 90% confluency, the growth medium was aspirated and replaced with fresh medium containing 10 μM of a compound belonging to sets 5 or 7, respectively. The cells were incubated with the compound for 24 h, after which the medium was aspirated, and the cells were washed three times with 10 mL of PBS buffer. Subsequently, the washed cells were […]
trypsinized for 3 min, and the trypsin reaction was halted by the addition of 3 mL growth media.
Cells were suspended in the mixture, and the total cell count was determined using a Bio -Rad TC20 cell counter. The cell suspension was centrifuged at 5000 rpm for 5 minutes, and the supernatant was removed. The cells were then digested using 2 mL of aqua regia (3:1 v/v, 37% HCl and 70% HNO3, trace metal basis quality (Aldrich, purity ≥99.999%)) and sonicated at 60 °C for 16 h. The dissolved samples were then diluted with 13 mL of HPLC-grade water to reach a final volume of 15 mL. The total metal content of the samples was then determined via ICP-MS analysis (Thermo Scientific iCAP RQ, ASX-560) in Ar plasma in KED mode with He as collision gas. Reference to standards was made, and calibration curves were developed using commercial calibration standards (TraceCert®, Merck).
Fluorophore Compound Metal content
Table S3: Whole cell accumulation of compound sets 5 and 7 analyzed using ICP-MS and expressed in terms of total metal content. […]

Data set [2] deals with HeLa cells. Briefly: MTT antiproliferative / cell viability assay. Particulars: mean of three ± SD. It is filed as cell-based. The protocol: We investigated the antiproliferative activities of compounds 4‒8 against HeLa cells using the standard 3‐(4,5‐dimethylthiazol‐2‐yl)‐2,5‐diphenyltetrazolium bromide (MTT) assay (Table 2). […]
8. Cell viability studies […]
media. All biological experiments were thus conducted using 5 mM stock solutions in DMSO that were diluted with culture medium to produce a final concentration of 0.5% DMSO for all experiments unless specified otherwise.
Cell viability experiments
HeLa cells were harvested, pelleted by centrifugation, and resuspended in cell culture medium. The MTT assays were carried out in 96 well plates at a starting density of 1500 cells per well in 100 µL of culture medium. The next day, a dilution series of 7 different concentrations was prepared for each evaluated compound. After 24 h of incubation, the cells were treated with 100 µL of culture medium containing the prepared conc entrations of the respective compounds to reach a final volume of 200 µL in each well. As a negative control, one series of cells was treated with the vehicle only (0.5% DMSO). […]
MTT dye (2.5 mg/mL). After a further incubation of 2 h, the medium was aspired off, and 200 µL DMSO was added to solubilize the precipitated formazan dye. The formazan absorption was measured on a BMG LABTECH CLARIOstar Plus plate reader at 550 nm, using a reference wavelength of 620 nm. Using the mean absorbance of each set of identically treated wells, a dose-response curve was produced and normalized to the wells containing untreated cells to allow for plate-to-plate comparison. The dose-response curves were then subjected to non-linear regression analysis performed in Microsoft Excel to determine IC50 values. Data is shown as the mean of three replicate experiments, and error bars represent the standard

Where two headings read alike, the source gives them in different places.

One may read the IC50 as the concentration needed to halve the response being measured. In the data set on HeLa cells [1], `CC1=CC(C)=[N+]2C1=Cc1ccc(CCC(=O)NCCc3cccc(C4=[N+]5N=C(N(C)C)[S][Pt-2]5([Cl])[n+]5ccccc54)n3)n1[B-]2(F)F` (stereo not drawn) [Compound 7b] had a Metal content of 0.013 ± 0.002 pg/cell. Besides, the IC50 was greater than 15 µM in the data set on HeLa cells [2] (24 hours incubation, read-out: IC50 24 hours) and 4.3 ± 0.3 µM in the data set on HeLa cells [2] (72 hours incubation, read-out: IC50 72 hours).

(Values after paper PMC12699179, “Investigating Metal and Fluorophore Controlled Intracellular Localization in Noble Metal Thiosemicarbazone Complexes” (Chemistry (Weinheim an Der Bergstrasse, Germany), 2025).)
